Patent US9302991B2, “Arylamide derivatives as TTX-S blockers” (RaQualia Pharma Inc., priority 2010, dated 2016)

Key:
[1] = biological target: T1, human Nav1.3 (hSCN3A) (Homo sapiens, UniProt Q9NY46); assay: Electrophysiology assay for Navs, whole cell patch clamp, Nav1.3; type: cell-based; conditions: Kinact, dissociation constant for the inactivated state, read-out: activities (Ki) against Nav1.3
T1 construct: expressed in transfected cells; host or cells: HEK293
Description: Electrophysiology Assay for Navs
Whole cell patch clamp recording is used to assess the efficacy or selectivity of Na channel blocker on human Nav1.3 (hSCN3A) expressing HEK293 cells or human Nav1.7 (hSCN9A) expressing CHO cells. Human Nav1.3 expressing HEK293 cells are grown in growth media which comprised: DMEM, 10% heat-inactivated FBS (Hyclone Laboratories Inc), 100 microgram/mL Penicillin/100 U/mL Streptomycin, 150 microgram/mL Zeocin, 3 microgram/mL Geneticin. Human Nav1.7 expressing CHO cells are grown in growth media which comprised: HAM/F-12, 9% heat-inactivated FBS (Hyclone Laboratories Inc), 100 microgram/mL Penicillin/100 U/mL Streptomycin, 100 microgram/mL Hygromycin.
Na channel expressing cells are dissociated by 0.05% Trypsine-EDTA, and then seeded on cover glass for 24-48 hr. […]
The normalized steady-state inactivation curve is constructed using 2 sec (for vehicle) or 60 sec (for drugs) conditioning pulse to different potentials followed immediately by the test pulse to −10 mV. […] The affinity of drugs to resting state of Na channels (Kresting or Kr) is assessed by 30 msec test pulse from a negative holding potential of −120 or −130 mV, where virtually all channels are in the resting state. Kr value is calculated by a conventional 1:1 binding model: Kresting(Kr)={[drug]Imax,drug/(Imax,control−Imax,drug)} […]

[2] = system: CCI-induced static allodynia in rats; assay: Chronic Constriction Injury (CCI)-induced static allodynia in rats; type: in vivo, Sprague-Dawley rats; conditions: 100 mg/kg per os
Description: Chronic Constriction Injury (CCU-Induced Static Allodynia in Rats
Male Sprague-Dawley rats at 7 weeks old are purchased from Charles River Japan Inc., and housed in groups of two per cage under a 12-h light/dark cycle (lights on at 07:00) with access to food and water ad libitum. CCI-induced static allodynia is assessed by von Frey hair (VFH) test. Surgery is performed according to the method of Bennett G J and Xie Y K (Pain 1988, 33: 87-107). The animals are anesthetized with intraperitoneal injection of pentobarbital sodium. The left common sciatic nerve is exposed at the level of the middle of the thigh, freed of adhering tissue, and four ligatures are loosely tided around it by using 4-0 silk thread. The incision is sutured, and the rats are allowed to recover in their cages with soft bedding. Sham operation is performed in the same manner except of sciatic nerve ligation. The animals are individually placed in a Plexiglas test chamber on an elevated grid to acclimate for 1 hour before the day of testing. […]
In the cases where continuous positive or negative responses are observed all the way out to the end of the stimulus spectrum, values of 0.25 and 15 g are assigned, respectively. […] The 50% PWT is measured at the appropriated time after compound administration.

T1 sequence (Q9NY46 whole entry): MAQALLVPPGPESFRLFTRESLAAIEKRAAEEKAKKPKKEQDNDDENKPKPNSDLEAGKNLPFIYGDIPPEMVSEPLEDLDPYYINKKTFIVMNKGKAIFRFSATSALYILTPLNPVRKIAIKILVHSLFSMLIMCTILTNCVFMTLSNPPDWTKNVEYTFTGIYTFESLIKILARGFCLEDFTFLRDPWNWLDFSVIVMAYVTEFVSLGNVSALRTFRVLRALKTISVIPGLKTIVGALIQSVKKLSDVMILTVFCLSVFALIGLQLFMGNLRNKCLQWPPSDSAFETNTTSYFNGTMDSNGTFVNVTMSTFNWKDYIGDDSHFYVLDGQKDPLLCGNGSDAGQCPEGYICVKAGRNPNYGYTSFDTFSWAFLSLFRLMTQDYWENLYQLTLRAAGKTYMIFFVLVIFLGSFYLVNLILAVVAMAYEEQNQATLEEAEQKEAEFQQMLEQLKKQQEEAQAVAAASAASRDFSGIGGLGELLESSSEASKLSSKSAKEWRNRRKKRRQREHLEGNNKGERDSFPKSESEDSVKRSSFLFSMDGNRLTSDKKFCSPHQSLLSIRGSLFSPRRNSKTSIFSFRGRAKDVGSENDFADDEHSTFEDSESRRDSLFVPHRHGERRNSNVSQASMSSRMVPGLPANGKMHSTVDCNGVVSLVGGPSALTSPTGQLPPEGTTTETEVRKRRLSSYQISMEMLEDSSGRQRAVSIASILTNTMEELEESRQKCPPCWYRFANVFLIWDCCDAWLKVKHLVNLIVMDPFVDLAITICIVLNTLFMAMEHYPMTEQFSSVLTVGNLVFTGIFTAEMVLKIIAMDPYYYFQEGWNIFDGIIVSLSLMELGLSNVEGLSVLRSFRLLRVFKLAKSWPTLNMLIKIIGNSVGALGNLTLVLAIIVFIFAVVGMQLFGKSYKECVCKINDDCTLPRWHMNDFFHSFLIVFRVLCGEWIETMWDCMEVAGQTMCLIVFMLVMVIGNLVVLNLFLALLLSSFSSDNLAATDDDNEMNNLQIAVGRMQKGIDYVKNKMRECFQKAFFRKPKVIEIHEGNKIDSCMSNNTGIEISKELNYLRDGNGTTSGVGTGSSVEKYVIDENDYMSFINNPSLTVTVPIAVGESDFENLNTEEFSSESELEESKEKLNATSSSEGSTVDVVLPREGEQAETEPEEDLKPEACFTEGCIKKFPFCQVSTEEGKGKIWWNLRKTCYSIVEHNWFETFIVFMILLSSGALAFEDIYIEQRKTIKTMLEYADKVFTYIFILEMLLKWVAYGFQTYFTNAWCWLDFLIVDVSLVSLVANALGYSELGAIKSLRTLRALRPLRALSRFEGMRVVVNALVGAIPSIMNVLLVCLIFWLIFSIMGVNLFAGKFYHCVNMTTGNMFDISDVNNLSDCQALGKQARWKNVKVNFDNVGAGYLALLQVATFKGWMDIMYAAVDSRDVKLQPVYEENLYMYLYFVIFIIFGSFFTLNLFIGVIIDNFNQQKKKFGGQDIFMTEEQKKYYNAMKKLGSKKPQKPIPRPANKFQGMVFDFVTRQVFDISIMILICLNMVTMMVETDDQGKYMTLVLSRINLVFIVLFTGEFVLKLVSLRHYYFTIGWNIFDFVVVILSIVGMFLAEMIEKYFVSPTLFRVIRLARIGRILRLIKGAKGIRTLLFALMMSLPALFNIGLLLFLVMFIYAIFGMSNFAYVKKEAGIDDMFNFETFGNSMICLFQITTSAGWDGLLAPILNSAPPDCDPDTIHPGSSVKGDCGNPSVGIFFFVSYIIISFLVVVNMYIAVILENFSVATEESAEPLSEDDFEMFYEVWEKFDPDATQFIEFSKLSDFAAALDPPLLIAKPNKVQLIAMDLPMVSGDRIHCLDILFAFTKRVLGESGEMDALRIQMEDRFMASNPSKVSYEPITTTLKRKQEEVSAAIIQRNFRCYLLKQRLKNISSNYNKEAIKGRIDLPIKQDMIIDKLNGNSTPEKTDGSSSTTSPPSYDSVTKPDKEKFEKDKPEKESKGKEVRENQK

With `CC(=O)Nc1cc(C(=O)NC(C)c2ccc(OCC(F)(F)F)nc2)ccn1` (single isomer, unassigned; (-)) [Example 1, (−)-2-acetamido-N-(1-(6-(2,2,2-trifluoroethoxy)pyridin-3-yl)ethyl)isonicotinamide] the Ki [1] was 1.5 µM and the “activity in CCI-induced static allodynia (50% PWT, von Frey hair test)” value [2] was “potent activity”.
